Results reported in US20130189764A1, “SELECTIVE GROWTH MEDIA” (Oxide Limited, priority 2000, published 2013).

Legend:
[1] = system: E. coli OCC 2129; assay: Bioscreen growth, comparison with conventional selective agents (Example 12); type: cell-based, Escherichia coli; conditions: 60 μg/ml alaphosphin
Method: The following is an example to illustrate the beneficial lower toxic properties of the new selective agents towards the target microorganism, in this case Salmonella. Two selective agents, cefsulodin and novobiocin, as used conventionally in Salmonella isolation from foods (Humphrey and Whitehead, 1992 British Poultry Science 33, 761-768) were compared with alaphosphin. All were dissolved in deionised water, filter sterilised, and an amount of the solution added to either autoclaved Lab-Lemco broth+phosphate buffer (20 g/l; pH 6.0; ala-AEP) or Buffered Peptone Water (pH 6.8; cefsulodin and novobiocin) to give final concentrations of 66, 16.5 and 11 μg/ml respectively. [The different pH values reflect the different pH optima of the selective agents (ala-AEP was also subsequently used in BPW at pH 6.8 and similar results obtained)]. Volumes (300 μl) were then pipetted into the wells of Bioscreen microtitre plates and 30 μl quantities of 1 in 10,000 dilutions of overnight cultures of E. coli OCC 2129 and Salmonella typhimurium OCC 722, added. Plates were then covered, incubated at 37° C., and the opacity of the organism suspensions measured using a Bioscreen instrument.
Typical results are shown in FIGS. 17-19, which are graphs of optical density against time for S. typhimurium (circles) and E. coli (squares) in the presence (empty symbols) or absence (filled symbols) of 15 μg/ml cefsulodin (FIG. 17), 10 μg/ml novobiocin (FIG. 18) or 60 μg/ml alaphosphin (FIG. 19).

[2] = system: E. faecalis OCC 604; assay: growth on nutrient agar, mixed culture with S. aureus (Example 7); type: cell-based, Enterococcus faecalis; conditions: E. faecalis in mixed culture with S. aureus
From the text: Example 6 was repeated, this time using a mixed culture of S. aureus OCC 102 and E. faecalis OCC 604, in the presence of AEP or alaphosphin. The empty columns represent growth of S. aureus, the shaded columns represent growth of E. faecalis. […] Thus alaphosphin could be used, when incorporated at an appropriate concentration in a medium, to inhibit growth of organisms such as Enterococci in samples whilst allowing Staphylococci to grow and be detected.

## C[C@H](N)C(=O)N[C@@H](C)P(=O)(O)O [alaphosphin, L-alanyl-L-1-aminoethylphosphonic acid]
[1]
  growth of E. coli: completely inhibited
[2]
  concentration causing complete inhibition: ≥ 2 mM
